The test system of one assay is skin elastin. The experiment in a line: 3H-elastin cleavage assay, skin elastin. Format: biochemical. As for the experimental part: (§1) FIG. 2: granzyme B degrades elastin in vitro. Granzyme B was incubated with ^3H-elastin for 7 days at room temperature. Elastase was incubated with ^3H-elastin for 2 hours. Supernatants containing the soluble elastin cleavage fragments were collected and counted. Data is represented as fold increase in radioactivity over the control (elastin only). (n=2)
(§2) Tritiated elastin was prepared with the modifications as described in Banda, M. J. and Werb, Z. (1981) Biochem J 193: 589-605 and Gordon, S., Werb, Z. and Cohn, Z. A. (1976) in In Vitro Methods in Cell Mediated and Tumor Immunity, eds. Bloom, B. R. and David, J. R. (Academic Press, New York), pages 349-350. 1 mg of skin or aortic elastin was diluted in 1 ml dH2O and pHed to 9.2. 1 mCi NaB3H4 (PerkinElmer, Waltham Mass.) and 2 mg of non-radioactive […] (Sigma, St. Louis, Mo.) was added. After 2 hours of incubation, the pH was adjusted to 3.0 and the elastin was incubated for an additional 30 minutes. The elastin was centrifuged for 3 minutes at 5000×g and the pellet was repeatedly washed to remove excess NaB3H4. […] The radioactivity of the soluble, cleaved elastin fragments in the supernatant was counted in Ready Safe Scintillation Fluid (Beckman-Coulter, Fullerton, Calif.). The radioactivity of the cleaved, soluble elastin fragments was 4.8 times and 2.7 times higher than background for skin and aortic elastin, respectively (FIG. 2).

Another assay concerns aortic elastin. The experiment in a line: 3H-elastin cleavage assay, aortic elastin. Format: biochemical. As to the method: as §1, §2
[1] abbreviates: 25 μg elastase, 2 hours, positive control.
[2] abbreviates: 0.15 mg 3H-elastin, granzyme B 0.75 μg added 5 times, room temperature, 7 days.

Consider elastase, for which the “radioactivity increase over background” value in the assay on skin elastin (setting [1]) stood at 14.9 fold; with aortic elastin (setting [1]) it was 7.7 fold.

In the case of “granzyme B: serine protease that is capable of cleaving elastin and other extracellular proteins”, the figures for the “radioactivity of the cleaved, soluble elastin fragments, higher than background” value with skin elastin (setting [2]) and in the assay with aortic elastin (setting [2]) were 4.8 times and 2.7 times, respectively.

Values taken from patent publication US20120171144A1, “METHODS OF TREATING, REDUCING AND INHIBITING THE APPEARANCE OF AGEING IN THE SKIN” (priority 2006, published 2012).
